Patent US6737383B1, “Herbicidal oxadiazolidines” (priority 1999, dated 2004)

What was measured:
giant foxtail = assay: Test B pre/postemergence giant foxtail; type: in vivo, Setaria faberii
Method in brief: (§1)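 Test chemicals in a non-phytotoxic solvent mixture with surfactant were sprayed preemergence onto planted seeds and postemergence onto plants 2 to 18 cm tall (1- to 4-leaf stage). After twelve to sixteen days in a greenhouse, injury was visually rated against untreated controls from 0 (no effect) to 10 (complete control).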

morningglory = assay: Test B pre/postemergence morningglory; type: in vivo, Ipomoea hederacea
Method in brief: as §1

rice = assay: Test B flood test rice; type: in vivo, Oryza sativa
Method in brief: (§2)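 Read-out is a visual response score from 0 (no effect) to 10 (complete control), assigned by comparison with untreated controls. Treatment was applied at the 2-leaf stage, and plants stayed in the greenhouse for twelve to sixteen days before scoring.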

duck salad = assay: Test B flood test duck salad; type: in vivo, Heteranthera limosa; conditions: for Plant response rating, Ducksalad (0 to 10 scale, 0 is no effect, 10 is complete control) / Ducksalad plant response rating (0 to 10 scale, 0 is no effect, 10 is complete control): visual evaluation after twelve to sixteen days; for Ducksalad plant response rating (0 to 10 scale, 0 is no effect, 10 is complete control): under heading Pre-emergence
Method in brief: as §2

[1] = Postemergence, Rate 62 g/ha, scale 0 to 10, 0 is no effect, 10 is complete control
[2] = Postemergence, Rate 250 g/ha, scale 0 to 10, 0 no effect, 10 complete control
[3] = Preemergence, Rate 62 g/ha, scale 0 to 10, 0 is no effect, 10 is complete control
[4] = Preemergence, Rate 125 g/ha, scale 0 to 10 (0 no effect, 10 complete control)
[5] = Preemergence, Rate 250 g/ha, scale of 0 to 10 where 0 is no effect and 10 is complete control
[6] = Preemergence, Rate 500 g/ha, scale 0 (no effect) to 10 (complete control)
[7] = Rate 125 g/ha, Postemergence, scale 0 to 10, 0 no effect, 10 complete control
[8] = Rate 500 g/ha, Postemergence, 0 to 10 scale (0 no effect, 10 complete control)
[9] = Rate 125 g/ha, Postemergence section (flood test species), scale 0 to 10, 0 no effect, 10 complete control
[10] = Rate 500 g/ha, Postemergence section of Table B, 0 to 10 scale (0 no effect, 10 complete control)
[11] = flood test, listed under Postemergence, Rate 250 g/ha, scale 0 to 10, 0 no effect, 10 complete control
[12] = Postemergence, Rate 31 g/ha, visual rating, scale 0 to 10 (0 no effect, 10 complete control)
[13] = Preemergence, Rate 62 g/ha, scale of 0 to 10 where 0 is no effect and 10 is complete control
[14] = Rate 62 g/ha, Postemergence, scale 0 to 10 (0 no effect, 10 complete control)
[15] = Rate 125 g/ha, Postemergence, scale of 0 to 10 where 0 is no effect and 10 is complete control
[16] = Rate 250 g/ha, Postemergence, scale of 0 to 10 where 0 is no effect and 10 is complete control
[17] = Rate 31 g/ha, Pre-emergence section (flood test species), scale 0 to 10
[18] = Rate 62 g/ha, headed Pre-emergence (flood test species), scale 0 to 10 (0 no effect, 10 complete control)
[19] = Rate 125 g/ha, Pre-emergence, flood test species, scale 0 to 10 where 0 is no effect and 10 is complete control
[20] = Rate 250 g/ha, Pre-emergence, flood-test species, scale 0 to 10, 0 is no effect, 10 is complete control
[21] = Preemergence, Rate 500 g/ha, scale of 0 to 10 where 0 is no effect and 10 is complete control
[22] = Rate 62 g/ha, Postemergence, scale of 0 to 10 where 0 is no effect and 10 is complete control
[23] = Rate 125 g/ha, Preemergence, scale of 0 to 10 where 0 is no effect and 10 is complete control
[24] = Rate 500 g/ha, Postemergence, scale 0 to 10, 0 no effect, 10 complete control
[25] = Rate 500 g/ha, Pre-emergence, flood test species, scale 0 to 10 (0 no effect, 10 complete control)
[26] = Postemergence, Rate 125 g/ha, scale 0 to 10, 0 is no effect, 10 is complete control
[27] = Postemergence, Rate 250 g/ha, scale 0 to 10, 0 is no effect, 10 is complete control
[28] = Postemergence, Rate 500 g/ha, scale of 0 to 10 where 0 is no effect and 10 is complete control
[29] = Preemergence, Rate 62 g/ha, scale 0 to 10 (0 no effect, 10 complete control)
[30] = Preemergence, Rate 125 g/ha, scale of 0 to 10 where 0 is no effect and 10 is complete control
[31] = Preemergence, Rate 250 g/ha, scale 0 to 10, 0 is no effect, 10 is complete control
[32] = Preemergence, Rate 500 g/ha, scale 0 to 10, 0 is no effect, 10 is complete control
[33] = Rate 62 g/ha, flood test species, Pre-emergence
[34] = Rate 125 g/ha, flood test species
[35] = Postemergence, Rate 62 g/ha, scale of 0 to 10, 0 is no effect, 10 is complete control
[36] = Postemergence, Rate 500 g/ha, scale 0 to 10, 0 is no effect, 10 is complete control
[37] = Preemergence, Rate 125 g/ha, scale 0 to 10, 0 is no effect, 10 is complete control

## Cc1ccccc1-n1c(=O)on(C(=O)N(C2=CCOCC2)C(C)C)c1=O [Compound 10]
Giant foxtail; [1]
  Giant foxtail plant response rating: 2
Giant foxtail; [2]
  Giant foxtail plant response rating: 8
Giant foxtail; [3]
  Plant response rating, Giant foxtail: 3
Giant foxtail; [4]
  Plant response rating, Giant foxtail: 6
Giant foxtail; [5]
  Plant response rating, Giant foxtail: 9
Giant foxtail; [6]
  Giant foxtail plant response rating: 9
Giant foxtail; [7]
  Giant foxtail plant response rating: 5
Giant foxtail; [8]
  Giant foxtail plant response rating: 8
morningglory; [1]
  Morningglory plant response rating: 0
morningglory; [2]
  Morningglory plant response rating: 2
morningglory; [3]
  Plant response rating, Morningglory: 0
morningglory; [4]
  Plant response rating, Morningglory: 0
morningglory; [5]
  Plant response rating, Morningglory: 0
morningglory; [6]
  Morningglory plant response rating: 0
morningglory; [7]
  Morningglory plant response rating: 2
morningglory; [8]
  Morningglory plant response rating: 3
rice; [1]
  Rice plant response rating: 0
rice; [9]
  Rice plant response rating: 0
rice; [10]
  Rice plant response rating: 0
rice; [11]
  Rice plant response rating: 0
Duck salad; [1]
  Ducksalad plant response rating: 0
Duck salad; [9]
  Ducksalad plant response rating: 0
Duck salad; [10]
  Ducksalad plant response rating: 0
Duck salad; [11]
  Ducksalad plant response rating: 0

## Cc1cccc(C)c1-n1c(=O)on(C(=O)N(c2ccc(Cl)cc2Cl)C2CCC2)c1=O [Compound 318]
Giant foxtail; [12]
  Giant foxtail plant response rating: 0
Giant foxtail; Preemergence, Rate 31 g/ha, visual rating, scale 0 to 10 (0 no effect, 10 complete control)
  Giant foxtail plant response rating: 0
Giant foxtail; [13]
  Giant foxtail plant response rating: 0
Giant foxtail; Preemergence, Rate 125 g/ha
  Giant foxtail plant response rating (0 to 10 scale): 0
Giant foxtail; [5]
  Giant foxtail plant response rating: 0
Giant foxtail; [14]
  Giant foxtail plant response rating: 0
Giant foxtail; [15]
  Giant foxtail plant response rating: 0
Giant foxtail; [16]
  Plant response rating, Giant foxtail: 0
morningglory; [12]
  Morningglory plant response rating: 0
morningglory; [13]
  Morningglory plant response rating: 0
morningglory; Preemergence, Rate 125 g/ha
  Morningglory plant response rating (0 to 10 scale): 0
morningglory; [5]
  Morningglory plant response rating: 0
morningglory; [14]
  Morningglory plant response rating: 0
morningglory; [15]
  Morningglory plant response rating: 0
morningglory; [16]
  Plant response rating, Morningglory: 3
rice; [17]
  Rice plant response rating: 0
rice; [18]
  Rice plant response rating: 0
rice; [19]
  Rice plant response rating: 0
rice; [20]
  Rice plant response rating: 0
Duck salad; [17]
  Ducksalad plant response rating: 0
Duck salad; [18]
  Ducksalad plant response rating: 0
Duck salad; [19]
  Ducksalad plant response rating: 0
Duck salad; [20]
  Ducksalad plant response rating: 0

## Cc1ccccc1-n1c(=O)on(C(=O)N(c2ccc(Cl)cc2)C(C)C)c1=O [Compound 41]
Giant foxtail; [1]
  Giant foxtail plant response rating: 0
Giant foxtail; [2]
  Giant foxtail plant response rating: 1
Giant foxtail; [3]
  Plant response rating, Giant foxtail: 4
Giant foxtail; [4]
  Plant response rating, Giant foxtail: 9
Giant foxtail; [5]
  Plant response rating, Giant foxtail: 10
Giant foxtail; [6]
  Giant foxtail plant response rating: 10
Giant foxtail; [7]
  Giant foxtail plant response rating: 0
Giant foxtail; [8]
  Giant foxtail plant response rating: 1
morningglory; [1]
  Morningglory plant response rating: 1
morningglory; [2]
  Morningglory plant response rating: 2
morningglory; [3]
  Plant response rating, Morningglory: 0
morningglory; [4]
  Plant response rating, Morningglory: 0
morningglory; [5]
  Plant response rating, Morningglory: 0
morningglory; [6]
  Morningglory plant response rating: 0
morningglory; [7]
  Morningglory plant response rating: 2
morningglory; [8]
  Morningglory plant response rating: 6
rice; [1]
  Rice plant response rating: 0
rice; [9]
  Rice plant response rating: 0
rice; [10]
  Rice plant response rating: 0
rice; [11]
  Rice plant response rating: 0
Duck salad; [1]
  Ducksalad plant response rating: 0
Duck salad; [9]
  Ducksalad plant response rating: 0
Duck salad; [10]
  Ducksalad plant response rating: 0
Duck salad; [11]
  Ducksalad plant response rating: 0

## Cc1ccccc1-n1c(=O)on(C(=O)N(c2ccc(F)cc2)C(C)C2CC2)c1=O (stereo not drawn) [Compound 240]
Giant foxtail; [13]
  Giant foxtail plant response rating: 5
Giant foxtail; [5]
  Giant foxtail plant response rating: 10
Giant foxtail; [21]
  Plant response rating, Giant foxtail: 10
Giant foxtail; [22]
  Giant foxtail plant response rating: 0
Giant foxtail; [23]
  Giant foxtail plant response rating: 5
Giant foxtail; Rate 250 g/ha, Postemergence
  Plant response rating (0 to 10; 0 is no effect, 10 is complete control), Giant foxtail: 0
Giant foxtail; [24]
  Giant foxtail plant response rating: 2
morningglory; [13]
  Morningglory plant response rating: 0
morningglory; [5]
  Morningglory plant response rating: 0
morningglory; [21]
  Plant response rating, Morningglory: 0
morningglory; [22]
  Morningglory plant response rating: 5
morningglory; [23]
  Morningglory plant response rating: 0
morningglory; Rate 250 g/ha, Postemergence
  Plant response rating (0 to 10; 0 is no effect, 10 is complete control), Morningglory: 10
morningglory; [24]
  Morningglory plant response rating: 10
rice; [18]
  Rice plant response rating: 0
rice; [19]
  Rice plant response rating: 0
rice; [20]
  Rice plant response rating: 0
rice; [25]
  Rice plant response rating: 0
Duck salad; [18]
  Ducksalad plant response rating: 0
Duck salad; [19]
  Ducksalad plant response rating: 0
Duck salad; [20]
  Ducksalad plant response rating: 0
Duck salad; [25]
  Ducksalad plant response rating: 0

## Cc1nc(Cl)sc1C(C)n1c(=O)on(C(=O)N(c2ccc(Cl)cc2)C(C)C)c1=O (stereo not drawn) [Compound 406]
Giant foxtail; [26]
  Plant response rating, Giant foxtail: 0
Giant foxtail; [27]
  Plant response rating, Giant foxtail: 0
Giant foxtail; [28]
  Giant foxtail plant response rating: 0
Giant foxtail; [29]
  Plant response rating, Giant foxtail: 0
Giant foxtail; [30]
  Plant response rating, Giant foxtail: 0
Giant foxtail; [31]
  Giant foxtail plant response rating: 2
Giant foxtail; [32]
  Giant foxtail plant response rating: 9
Giant foxtail; [22]
  Giant foxtail plant response rating: 0
morningglory; [27]
  Plant response rating, Morningglory: 2
morningglory; [28]
  Morningglory plant response rating: 2
morningglory; [29]
  Plant response rating, Morningglory: 0
morningglory; [30]
  Plant response rating, Morningglory: 0
morningglory; [31]
  Morningglory plant response rating: 0
morningglory; [32]
  Morningglory plant response rating: 0
rice; Rate 62 g/ha, flood test species, Pre-emergence, visual evaluation after twelve to sixteen days
  Plant response rating, Rice (0 to 10 scale, 0 is no effect, 10 is complete control): 0
rice; Rate 125 g/ha, under heading Pre-emergence, flood test species, visual evaluation after twelve to sixteen days
  Rice plant response rating (0 to 10 scale, 0 is no effect, 10 is complete control): 0
rice; [20]
  Rice plant response rating: 0
rice; [25]
  Rice plant response rating: 0
Duck salad; [33]
  Plant response rating, Ducksalad (0 to 10 scale, 0 is no effect, 10 is complete control): 0
Duck salad; [34]
  Ducksalad plant response rating (0 to 10 scale, 0 is no effect, 10 is complete control): 0
Duck salad; [20]
  Ducksalad plant response rating: 0
Duck salad; [25]
  Ducksalad plant response rating: 0

## CCCCCn1c(=O)on(C(=O)N(c2ccc(Cl)cc2)C(C)C)c1=O [Compound 528]
Giant foxtail; [35]
  Giant foxtail plant response rating: 0
Giant foxtail; [26]
  Giant foxtail plant response rating: 3
Giant foxtail; [36]
  Plant response rating, Giant foxtail: 9
Giant foxtail; [13]
  Plant response rating, Giant foxtail: 9
Giant foxtail; [37]
  Giant foxtail plant response rating: 10
Giant foxtail; Preemergence, Rate 250 g/ha
  Giant foxtail plant response rating (0 to 10 scale): 10
Giant foxtail; [21]
  Giant foxtail plant response rating: 10
Giant foxtail; [16]
  Plant response rating, Giant foxtail: 3
morningglory; [35]
  Morningglory plant response rating: 2
morningglory; [26]
  Morningglory plant response rating: 3
morningglory; [36]
  Plant response rating, Morningglory: 5
morningglory; [13]
  Plant response rating, Morningglory: 0
morningglory; [37]
  Morningglory plant response rating: 0
morningglory; Preemergence, Rate 250 g/ha
  Morningglory plant response rating (0 to 10 scale): 0
morningglory; [21]
  Morningglory plant response rating: 3
morningglory; [16]
  Plant response rating, Morningglory: 5
Duck salad; [33]
  Plant response rating, Ducksalad (0 to 10 scale, 0 is no effect, 10 is complete control): 0
Duck salad; [34]
  Ducksalad plant response rating (0 to 10 scale, 0 is no effect, 10 is complete control): 0
Duck salad; Rate 250 g/ha, Pre-emergence (flood test species), scale 0 to 10, 0 is no effect, 10 is complete control
  Ducksalad plant response rating: 0
Duck salad; Rate 500 g/ha, Pre-emergence section of Table B, 0 to 10 scale (0 no effect, 10 complete control)
  Ducksalad plant response rating: 0
